This is an account of results in PubChem BioAssay (NCI).

Where “and” joins values, the source holds several entries; their conditions need not be identical. Equal values may be shown once.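 These data come from cells grown in 96-well plates and exposed to compound for 48 hours at five concentrations. Abbreviation: GI50, concentration required for 50% inhibition of growth. TGI is the concentration that stops growth completely.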

Some test systems named below: KM20L2 colon; DMS 114 small cell lung; HOP-18 NSCLC; DLD-1 colon; MDA-N; NCI/ADR-RES ovarian; DU-145 prostate; T-47D breast; MDA-MB-435.
Common to all, as to experiment: growth of human tumour cells (NCI), 48 h

As to `[N-]=[N+]=Nc1ccc(CCN2CCN(c3cccc(C(F)(F)F)c3)CC2)cc1I`, in the experiment on KM20L2 colon, the TGI was above 100 µM.
In the case of `O=C1c2ccccc2C(=O)C2C1C1C(=O)c3ccccc3C(=O)C21` (stereo not given), the TGI with DMS 114 small cell lung, with HOP-18 NSCLC, in the experiment on KM20L2 colon and in the experiment on DLD-1 colon was above 100 µM in each case.
As for `CC(N=C(N)N)C(=O)O` (stereo not given), the TGI in the experiment on MDA-N, in the experiment on NCI/ADR-RES ovarian, in the experiment on DU-145 prostate, in the experiment on T-47D breast and in the experiment with MDA-MB-435 was above 100 µM in each case.
For the compound `N#CCCN(CCC#N)C(=O)c1cccc(C(=O)N(CCC#N)CCC#N)c1`, the TGI is above 100 µM with DMS 114 small cell lung, above 63.8 µM with KM20L2 colon and above 100 µM in the experiment on DLD-1 colon.
`O=C(Cc1nc2ccccc2c(=O)n1-c1c(Cl)cccc1Cl)c1ccncc1`: the TGI was 78.6 µM in the experiment with DMS 114 small cell lung, 93.1 µM with HOP-18 NSCLC, 85.9 µM in the experiment on KM20L2 colon and above 100 µM in the experiment with DLD-1 colon.
`CCCCSN1C(=O)c2ccccc2C1=S`: the TGI with DMS 114 small cell lung and with DLD-1 colon was above 100 µM in each case.
As for `NC(N)=NS(=O)(=O)c1ccc(Nc2c3ccccc3nc3c(C(=O)N4CCN(CCO)CC4)cccc23)cc1`, the TGI with DMS 114 small cell lung, with HOP-18 NSCLC, in the experiment with KM20L2 colon and in the experiment on DLD-1 colon was above 100 µM each time.
With `O=C(CCN1CCOCC1)Nc1ccc(F)cc1F`, the TGI in the experiment on MDA-N, in the experiment on NCI/ADR-RES ovarian, in the experiment with DU-145 prostate, in the experiment with T-47D breast and in the experiment on MDA-MB-435 was above 100 µM in each case.
As to `COc1cc(=O)oc(/C=C/C=O)c1C`, the TGI in the experiment with DMS 114 small cell lung turned out to be 26.3 µM; with HOP-18 NSCLC, 37.5 µM; with KM20L2 colon it was 30.8 µM; with DLD-1 colon it was 34.3 µM.
For `CCCN(CCCN)/[N+]([O-])=N\O`, the TGI with DMS 114 small cell lung was above 100 µM; with HOP-18 NSCLC, above 100 µM; with KM20L2 colon, 2.74 µM; with DLD-1 colon, above 100 µM.
As for `COc1cc([N+](=O)[O-])c(S(=O)(=O)O)cc1NS(=O)(=O)c1ccc(C)cc1`, the TGI in the experiment with MDA-N, in the experiment on NCI/ADR-RES ovarian, in the experiment with DU-145 prostate, in the experiment on T-47D breast and in the experiment with MDA-MB-435 was above 100 µM each time.
As for `COC(=O)[C@H]1[C@H]2C[C@@H]3c4[nH]c5cc(OC)ccc5c4CCN3C[C@H]2C[C@@H](OC(=O)c2cc(OC)c(OC)c(OC)c2)[C@@H]1OC`, the TGI in the experiment on DMS 114 small cell lung was 40.4 µM; in the experiment with KM20L2 colon, 35.3 µM; in the experiment on DLD-1 colon it was above 100 µM.
As to `CN(C)c1ccc2c(c1)CN1C(=O)c3ccccc3C1=N2`, the GI50 was above 100 µM with DMS 114 small cell lung, 6.02 µM in the experiment on HOP-18 NSCLC and above 100 µM in the experiment on DLD-1 colon. For the same compound, the TGI in the experiment with DMS 114 small cell lung, with HOP-18 NSCLC and in the experiment on DLD-1 colon was above 100 µM throughout.
In the case of `CC1(C)OC(=O)[C@@](C)([C@H](O)c2ccccc2)O1`, the TGI in the experiment with DMS 114 small cell lung, in the experiment with KM20L2 colon and in the experiment on DLD-1 colon was above 100 µM each time.
With `CN1C(OCc2ccccc2)c2c(ccc3c2OCO3)C2C=Cc3cc4c(cc3C21)OCO4` (stereo not given), the TGI in the experiment on DMS 114 small cell lung stood at 0.854 µM; in the experiment on HOP-18 NSCLC, 2.61 µM; in the experiment with KM20L2 colon, 2.95 µM; with DLD-1 colon, 1.65 µM.
Turning to `CCNC(C)(C)C(SS)c1ccc(Br)cc1` (stereo not given), the TGI was above 100 µM in the experiment on MDA-N; above 100 µM in the experiment on NCI/ADR-RES ovarian; above 100 µM with DU-145 prostate; 93.6 µM with T-47D breast; above 100 µM in the experiment on MDA-MB-435.
In the case of `N=Nc1c(OC(=O)Nc2ccccc2)[nH]c2ccccc12`, the TGI in the experiment with MDA-N is 61.8 µM; in the experiment on NCI/ADR-RES ovarian, above 100 µM; with DU-145 prostate, 22.7 µM; with T-47D breast it was 37.7 µM; with MDA-MB-435 it was 45.1 µM.
For `COC(=O)CCC(C)[C@H]1CCC2C3C(C[C@H](OC(C)=O)[C@@]21C)[C@@]1(C)CCC2(C[C@H]1C[C@H]3OC(C)=O)OOC1(CCC(C)CC1)OO2` (stereo not given in full), the TGI with MDA-N, in the experiment with NCI/ADR-RES ovarian, in the experiment on DU-145 prostate, in the experiment with T-47D breast and with MDA-MB-435 was above 100 µM each time. The GI50 is > 100 µM and 27.8 µM in the experiment on DU-145 prostate; 10.9 µM and 43.4 µM with MDA-MB-435.
For `Cc1ccc(NC(=O)CC/C(CC(=O)C(C)(C)C)=N/NC(=O)C(N)=O)cc1C`, the TGI with DMS 114 small cell lung, in the experiment with HOP-18 NSCLC, with KM20L2 colon and in the experiment with DLD-1 colon was above 100 µM throughout.
Take `N=CCCN(CCC=N)c1ccc(/C=C2\CN(NC(=O)c3ccc(Cl)cc3)C(c3ccccc3)=N2)cc1`: the TGI with DMS 114 small cell lung, with HOP-18 NSCLC, in the experiment on KM20L2 colon and with DLD-1 colon was above 100 µM each time.
With `CC1(C)C(c2ccccc2)C12CCC1(C2=O)C(c2ccccc2)C1(C)C` (stereo not given), the TGI in the experiment on DMS 114 small cell lung came to 34.9 µM; in the experiment with KM20L2 colon, 52.9 µM.
As for `Cc1c(C)c2c(c(C)c1NC(=O)/C=C\C(=O)O)CCC(C)(CCCC(C)CCCC(C)CCCC(C)C)O2` (stereo not given), the GI50 with NCI/ADR-RES ovarian was 2540 nM; with DU-145 prostate, 1.69 µM; in the experiment with T-47D breast, 2.02 µM; in the experiment on MDA-MB-435, 1.67 µM. The TGI was found to be 7.46 µM with NCI/ADR-RES ovarian, 3.05 µM in the experiment on DU-145 prostate, 4.78 µM in the experiment on T-47D breast and 3.44 µM in the experiment with MDA-MB-435.
Regarding `CCOC(=O)C1=C(C)NC2SC(=O)/C(=C\c3ccccc3Cl)N2C1c1ccccc1` (stereo not given), the GI50 in the experiment on NCI/ADR-RES ovarian was above 100000 nM; in the experiment with DU-145 prostate, above 100 µM; with T-47D breast, 33.8 µM; in the experiment with MDA-MB-435, above 100 µM. Further, the TGI in the experiment on NCI/ADR-RES ovarian, in the experiment with DU-145 prostate, in the experiment on T-47D breast and in the experiment with MDA-MB-435 was above 100 µM each time.
`NC1=NC(c2ccc(Cl)cc2)N(c2ccc(S(=O)(=O)Nc3ncccn3)cc2)C(N)=N1` (stereo not given): the TGI in the experiment with MDA-N, in the experiment on NCI/ADR-RES ovarian, in the experiment with DU-145 prostate, in the experiment with T-47D breast and with MDA-MB-435 was above 100 µM each time.
